Assay: Human HepG2 cell viability assay in 384 well format
Assay type: toxicity, cell-based
Parameters: dose 125 nL, time 70.5 hour; concentration not given beside the values
Settings: HepG2 cells, read-out: Inhibition

Row | SMILES | cytotoxicity at 70.5 h [%]
1 | O=C(Cc1ccccc1C(F)(F)F)N1CCC2(CC1)[C@H](O)C[C@@H]2O | -6.88
2 | Cc1ccc(-c2nc(C(=O)N(C)CC(=O)N3CCCC3)cs2)c(C)c1 | -4.38
3 | CCn1cc(CN2CCCN(C(=O)c3sccc3OC)CC2)cn1 | 3.74
4 | Cc1cccc(OC2CN(C(=O)c3cnn(C)c3)C2)c1 | 16.2
5 | Cc1c(Cl)c(C(=O)NC(C)CN2CCOCC2)nn1C (stereo unspecified) | 6.43
6 | Cc1ncc(CN(C)c2nc3c(cnn3C(C)(C)C)c(=O)[nH]2)s1 | 11.8
7 | Cc1nc2ccccc2nc1CN1CCn2nc(CCC(=O)O)cc2C1 | -7.38
8 | O=C(NCCc1ccncc1)[C@H]1C[C@@H]2CCN(c3nncs3)C[C@H]2O1 | -11.9
9 | CN(Cc1ccncc1)C(=O)NCc1nnc2n1CCCCC2 | 22.9
10 | CN(C)c1cc(CC(NC(=O)C2CC2)c2ccccc2)nc(C2CC2)n1 (stereo unspecified) | 16.9
11 | COCCN1CCC2(CCC(=O)N2Cc2csc(C)n2)CC1 | -7.09
12 | CS(=O)(=O)NCCCSCc1cccc2cccnc12 | -9.28
13 | Cc1nsc(NCCNS(=O)(=O)c2cccc(Cl)c2)n1 | 9.23
14 | CSc1ncc(CNC(C)c2cnn(-c3ccc(F)cc3F)c2C)cn1 (stereo unspecified) | -2.86
15 | O=C(c1ccccn1)N(CCO)Cc1cc(Br)ccc1F | 17.2
16 | c1ncn(CC2CCCN2Cc2csc(C3CCCCC3)n2)n1 (stereo unspecified) | 1.84
17 | C1CC(CN2CC[C@@H]3O[C@@H](c4nnc(C5CC5)o4)C[C@H]3C2)CCO1 | -9.09
18 | O=c1ccc(-n2ccnc2)nn1CCNS(=O)(=O)c1ccc(Br)cc1 | 15.1
19 | Cc1ncc(CC(=O)N2CCC3(CCC(=O)N(C4CC4)C3)CC2)c(=O)[nH]1 | 5.88
20 | Cc1nc(CN2CCN(C(=O)c3cc(C4CC4)on3)CC2)cs1 | -14.7
21 | CN(C)C(=O)c1cc(-c2cnc(N)nc2)nc2cc(F)ccc12 | -2.39

Row | SMILES | cytotoxicity at 70.5 h [%]
22 | Cn1nc(C2CCNC2)c2c(C(=O)NCC(F)(F)F)cc(C3CC3)nc21 (stereo unspecified) | -7.49
23 | CC(C)c1cccc(S(=O)(=O)NCCCN2CCC(O)CC2)c1 | 3.11
24 | COc1c(CNCc2cccnc2OC(C)C)c(C(C)C)nn1C | -8.38
25 | O=C(c1cnccn1)N1CCCC(Cc2ccccn2)C1 (stereo unspecified) | 4.02
26 | Cc1cccc(CN2CCc3cc(C(=O)O)c(N(C)C)nc3CC2)n1 | -5.66
27 | COC(=O)c1ccc(N2CCN(C(=O)c3cnn(C)c3)C(C)C2)cc1 (stereo unspecified) | 16.7
28 | O=C1C[C@H]2[C@@H](CCN2C(=O)Cc2ccccc2)N1Cc1cccnc1 | -8.76
29 | CCOCCNS(=O)(=O)c1cc(C)c2nc(O)cc(C)c2c1 | 21
30 | Cc1n[nH]c2c1C(c1ccc(Cl)cc1)SCC(=O)N2 (stereo unspecified) | 10.6
31 | COCCN(C(=O)c1ccn(-c2ccc(OC)cc2)n1)C(C)C(N)=O (stereo unspecified) | 20.6
32 | Cc1ccc(S(C)(=O)=O)cc1C(=O)N(C)Cc1ccco1 | -3.41
33 | COc1ncccc1CN1CC[C@]2(C[C@@H](OCc3ccccn3)CO2)C1 | -13.8
34 | CC(=O)c1cnc(NCCc2csc(-c3cnccn3)n2)nc1C | -10.8
35 | Cc1cc(CN2CCC(C(=O)O)(n3ccc(-c4ccco4)n3)CC2)on1 | -2.92
36 | Cc1cccc(C(=O)N2CCSCC2)c1NC(=O)c1ccsc1 | -8.36
37 | COC(=O)NCC(=O)N1CCC(Oc2cccc(C)c2)CC1 | -5.33
38 | Cc1nc(-c2ccccc2)n(CC(=O)N(C(C)C)C(C)C)n1 | 2.39
39 | Cn1cc(C(=O)N2CCCN(C3Cc4ccccc4C3)CC2)cn1 | -13.8
40 | Fc1ccccc1CN1CCC[C@H](Cn2nnc(-c3cccs3)n2)C1 | -0.999
41 | CCS(=O)(=O)N1CCC2(CC1)CN(c1ccsc1)C(=O)CO2 | -11.6
42 | CCN(CC)c1ccc2ccc(C(=O)N(CCOC)CCOC)cn12 | -0.14

Row | SMILES | cytotoxicity at 70.5 h [%]
43 | CC(C)N1CCCc2sc(C(=O)NC3CC3)nc21 | 8.47
44 | CCNC(=O)CN(CC)S(=O)(=O)c1c(Br)cc2[nH]c(=O)oc2c1Cl | -12.3
45 | CCc1ncc2c(n1)CN(C(=O)c1c(C)[nH]c3c1C(=O)CCC3)C2 | 1.67
46 | O=C(CCc1cccs1)N1CCCC(N2CCNC2=O)C1 (stereo unspecified) | -5.71
47 | COc1c(F)cc(NCC(=O)NC(C)(C#N)C2CC2)cc1F (stereo unspecified) | -0.61
48 | CC(C)(CNC(=O)Nc1nccs1)N1CCOCC1 | -6.21
49 | COCc1nc(C2CCN(Cc3ncc[nH]3)CC2)no1 | 6.2
50 | CNC(=O)CN1CCC2(CCCN(CC3CCOC3)C2)CC1 (stereo unspecified) | -6.27
51 | CN(Cc1ccco1)C1CCC12CCN(C(=O)C1CCOCC1)CC2 (stereo unspecified) | -3.65
52 | O=C(C1=CCCC1)N1CCC[C@]2(C[C@@H](Oc3ncccc3F)CO2)C1 | -6.43
53 | CC(C)NC(=O)CN1CCCNCC1 | -0.253
54 | COc1cc(C)ccc1OCCC(=O)N1CCC(N2CC=CC2)C1 (stereo unspecified) | -2.75
55 | O=C1[C@@H]2CCN(CC3CC3)C[C@@H]2OCCN1c1ccsc1 | -2.56
56 | COc1cc(F)c(C(=O)NCc2ccon2)c(F)c1 | -3.42
57 | O=C(Cc1csc(-c2ccco2)n1)N1CCSCC1 | -11.7
58 | CCc1nccn1C1CCCN(C(=O)c2ccc3c(c2)nnn3C)C1 (stereo unspecified) | -5.62
59 | Cc1c(C(=O)NCC(C)(C)S(C)(=O)=O)cccc1-c1ccccn1 | -16.9
60 | CC(C)c1nnc2n1CCN(C(=O)c1ccc(CN(C)C)cc1)C2 | 3.04
61 | Cc1nc(CN2CCOCC3(CCN(c4ncccn4)C3)C2)cs1 (stereo unspecified) | -3.76
62 | CCCn1nnnc1COC(=O)C1Cc2cc(Cl)ccc2O1 (stereo unspecified) | -9.18
63 | COC(=O)CC(c1cccc(OC(F)F)c1)c1oc(C)cc(=O)c1O (stereo unspecified) | 7.18

Row | SMILES | cytotoxicity at 70.5 h [%]
64 | COc1ccc(CN2CCC3(CCCNC3)C2)cc1Cn1cccn1 (stereo unspecified) | 3.97
65 | Cc1ncsc1CN1C[C@@H]2CN(Cc3cccnc3)CCO[C@@H]2C1 | -5.27
66 | Nc1cc(-c2cccs2)nn(CC(=O)NCC2CCCCC2)c1=O | -10
67 | CC(C)NC(=O)NC(=O)C(C)N1CCN(C2CCN(C(C)C)CC2)CC1 (stereo unspecified) | -3.33
68 | OCC1(O)CCCN(Cc2nnc(-c3ccccc3)o2)CC1 (stereo unspecified) | -7.78
69 | Cn1cc(-c2cnc(N3CCOCC3)nc2)cc1C(=O)NCCC#N | -9.71
70 | CCNc1ncc(C(=O)NC2CCc3ccccc3C2)cn1 (stereo unspecified) | 54.4
71 | CNS(=O)(=O)c1c(C)sc2ccccc12 | -0.847
72 | Cc1nn2cccnc2c1C(=O)NCc1ccnc(OCC2CC2)c1 | -12.1
73 | COCC(=O)N1CCCCC1c1nc(CN(C)C(C)=O)cc(N(C)C)n1 (stereo unspecified) | 50.7
74 | O=C(CCC1CCCN(S(=O)(=O)C2CC2)C1)Nc1ccc(Cl)cc1 (stereo unspecified) | 34.5
75 | COc1cccc(N2C(=O)CC3(CCNCC3)C2=O)c1 | -4.17
76 | CC(C)CCNC(=O)CCc1ccnc2ccccc12 | -14.4
77 | COC1CN(C(=O)NCC(N)=O)CCC(=O)N(C)c2ccccc21 (stereo unspecified) | -7.69
78 | O=C1c2cccnc2OC(CN2CCOCC2)CN1Cc1cccs1 (stereo unspecified) | -4.39
79 | Cc1cnn(CC2CCCCN2Cc2nnc(-c3ccco3)o2)c1 (stereo unspecified) | -4.33
80 | CN(Cc1ccccc1)C(=O)[C@@H]1Cc2[nH]cnc2CN1C | 9.41
81 | CN(C)CCOCc1nnc2n1CCN(Cc1ccco1)CC2 | -4.62
